# Calls of active or inactive are those of the source.
# Assays:
# [1] = target: Glyceraldehyde-3-phosphate dehydrogenase (Homo sapiens, UniProt P04406)
# [2] = target: T1, Alkaline phosphatase, tissue-nonspecific isozyme (Homo sapiens, UniProt P05186); assay: potency against alkaline phosphatase TNAP – biochemical, luminescent, dose response, SAR follow-up (AID 1056)
# T1 sequence (P05186 whole entry): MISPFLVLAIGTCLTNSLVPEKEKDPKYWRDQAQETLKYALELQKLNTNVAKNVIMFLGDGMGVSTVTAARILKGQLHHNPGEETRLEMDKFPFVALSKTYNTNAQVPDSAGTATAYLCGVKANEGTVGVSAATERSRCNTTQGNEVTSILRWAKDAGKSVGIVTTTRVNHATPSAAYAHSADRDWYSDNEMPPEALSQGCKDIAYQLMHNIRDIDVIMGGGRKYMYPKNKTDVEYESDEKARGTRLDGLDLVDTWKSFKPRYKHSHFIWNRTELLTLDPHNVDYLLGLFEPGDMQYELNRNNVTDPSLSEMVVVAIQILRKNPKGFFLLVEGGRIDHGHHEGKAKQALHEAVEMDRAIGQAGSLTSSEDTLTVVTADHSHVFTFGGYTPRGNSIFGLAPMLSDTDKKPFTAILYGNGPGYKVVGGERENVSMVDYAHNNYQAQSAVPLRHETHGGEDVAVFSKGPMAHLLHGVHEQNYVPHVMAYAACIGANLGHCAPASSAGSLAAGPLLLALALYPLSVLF
# CAAX prenyl protease 2 = target: T2, CAAX prenyl protease 2 (Saccharomyces cerevisiae S288c, UniProt Q03530); format: biochemical
# T2 sequence (Q03530 whole entry): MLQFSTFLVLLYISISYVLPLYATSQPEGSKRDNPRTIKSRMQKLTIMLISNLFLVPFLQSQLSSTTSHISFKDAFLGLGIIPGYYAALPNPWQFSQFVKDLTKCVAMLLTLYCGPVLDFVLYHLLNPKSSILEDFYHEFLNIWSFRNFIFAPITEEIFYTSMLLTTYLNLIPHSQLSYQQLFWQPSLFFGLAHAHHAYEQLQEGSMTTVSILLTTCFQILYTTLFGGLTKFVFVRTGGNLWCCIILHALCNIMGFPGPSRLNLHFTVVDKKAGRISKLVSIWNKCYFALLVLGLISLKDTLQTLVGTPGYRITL
# Troponin, cardiac muscle = Troponin, cardiac muscle (Homo sapiens, UniProt P19429+P45379+P63316); assay: Fluorescence-based biochemical high throughput dose response assay for activators of the calcium sensitivity of cardiac Regulated Thin Filaments (RTF). [Related pubchem assays (depositor defined):AID493008, AID493018, AID504382, AID504383]; format: protein-complex assay
# [3] = viability of PTEN-deleted HCT116 cells – cell-based, HCT116 PTEN knockout, dose response (AID 1047); format: functional;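 further: HCT116 colon tumor cells with PTEN knocked out; cells exposed to compound for 60 hours before readout; potency for loss of cell viability measured by luminescence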
# [4] = target: Induced myeloid leukemia cell differentiation protein Mcl-1 (Homo sapiens, UniProt Q07820); assay: Mcl-1 Noxa peptide disruption concentration-response – biochemical, TR-FRET, dose response (AID 1417); format: functional
# [5] = viability of HCT116 lacking mutant beta-catenin – cell-based, human colon tumor, dose response (AID 1045); format: functional;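 further: HCT116 colon tumor cells with beta catenin knocked out; cells exposed to compound for 60 hours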
# Prothrombin = Prothrombin (Bos taurus, UniProt P00735); assay: thrombin protease inhibitors – biochemical, fluorescence polarization, uHTS hits, dose response (AID 602369); format: functional
# [6] = target: 72 kDa type IV collagenase (Homo sapiens, UniProt P08253); assay: Dose Response validation of uHTS RPN11 inhibitor hits using a MMP-2 Fluorescence assay.; format: functional
# [7] = target: 26S proteasome non-ATPase regulatory subunit 14 (Homo sapiens, UniProt O00487); assay: inhibition of proteasome subunit RPN11 – biochemical, fluorescence polarization, uHTS hits, confirmation (AID 602368); format: functional
# Cytochrome P450 2D6 = Cytochrome P450 2D6 (Homo sapiens, UniProt P10635);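 further: CYP2D6 member of a cytochrome P450 panel assay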
# Cytochrome P450 2C9 = Cytochrome P450 2C9 (Homo sapiens, UniProt P11712)
# Cytochrome P450 1A2 = target: T3, Cytochrome P450 1A2 (Homo sapiens, UniProt P05177);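 further: PubChem cytochrome P450 panel assay, CYP1A2 panel member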
# T3 sequence (P05177 whole entry): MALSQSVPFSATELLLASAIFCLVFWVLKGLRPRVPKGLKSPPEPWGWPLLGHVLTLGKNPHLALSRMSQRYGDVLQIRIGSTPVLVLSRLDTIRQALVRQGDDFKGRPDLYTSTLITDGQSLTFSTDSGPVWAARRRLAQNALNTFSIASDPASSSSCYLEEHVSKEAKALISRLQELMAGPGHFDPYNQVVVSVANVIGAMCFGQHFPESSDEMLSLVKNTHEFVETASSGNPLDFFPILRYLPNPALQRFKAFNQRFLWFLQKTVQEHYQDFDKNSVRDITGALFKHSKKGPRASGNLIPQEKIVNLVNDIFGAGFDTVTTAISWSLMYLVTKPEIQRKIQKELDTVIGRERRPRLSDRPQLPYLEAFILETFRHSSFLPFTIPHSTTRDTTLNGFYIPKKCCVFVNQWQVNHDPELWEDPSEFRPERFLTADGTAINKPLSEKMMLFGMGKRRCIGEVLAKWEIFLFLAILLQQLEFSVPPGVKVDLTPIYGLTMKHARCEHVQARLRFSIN
# Cytochrome P450 3A4 = Cytochrome P450 3A4 (Homo sapiens, UniProt P08684);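 further: CYP3A4 tested as one member of a cytochrome P450 panel screen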
# Cytochrome P450 2C19 = Cytochrome P450 2C19 (Homo sapiens, UniProt P33261); assay: Cytochrome panel assay with activity outcomes. Panel member name: p450-cyp2c19 Compounds with AC50 equal or less than 10 uM are considered active; format: functional; settings: read-out: AC50
# [8] = target: Glucose-6-phosphate 1-dehydrogenase (Homo sapiens, UniProt P11413); assay: inhibition of Homo sapiens G6PD, dose series – biochemical, fluorescence, selectivity assay for P. falciparum G6PD inhibitor project, dose response (AID 504792); format: functional
# [9] = target: FAD-linked sulfhydryl oxidase ALR (Homo sapiens, UniProt P55789); assay: ALR-catalysed DTT oxidation blockers – biochemical, H2O2 detection, luminescence, cherry-pick, dose response (AID 493248)
# [10] = target: T4, Rac GTPase-activating protein 1 (Homo sapiens, UniProt Q9H0H5); assay: blockers of MgcRacGAP-driven Rac1 GTP hydrolysis – biochemical, ADP Hunter fluorescence, primary and confirmatory, confirmation (AID 624330); format: functional
# T4 sequence (Q9H0H5 whole entry): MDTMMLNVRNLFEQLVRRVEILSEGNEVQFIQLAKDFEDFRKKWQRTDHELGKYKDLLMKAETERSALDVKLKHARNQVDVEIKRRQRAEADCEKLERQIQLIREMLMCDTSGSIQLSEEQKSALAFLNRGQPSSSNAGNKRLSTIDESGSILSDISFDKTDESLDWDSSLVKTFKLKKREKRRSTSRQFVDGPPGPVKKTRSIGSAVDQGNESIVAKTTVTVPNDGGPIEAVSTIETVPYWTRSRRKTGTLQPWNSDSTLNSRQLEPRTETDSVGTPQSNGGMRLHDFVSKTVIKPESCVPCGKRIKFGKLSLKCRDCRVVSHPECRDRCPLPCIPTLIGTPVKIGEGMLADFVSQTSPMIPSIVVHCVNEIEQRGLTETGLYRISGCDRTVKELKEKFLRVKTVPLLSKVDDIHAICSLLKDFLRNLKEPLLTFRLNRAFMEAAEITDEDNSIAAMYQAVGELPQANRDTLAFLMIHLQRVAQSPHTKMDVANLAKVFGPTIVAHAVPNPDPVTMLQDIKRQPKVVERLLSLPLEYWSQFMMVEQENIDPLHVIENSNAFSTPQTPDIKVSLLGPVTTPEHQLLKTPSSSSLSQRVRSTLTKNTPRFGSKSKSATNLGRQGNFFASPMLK
# BJ [11] = assay: cells; format: functional, cell-based; settings: Homo sapiens
# [12] = target: T5, Replicative DNA helicase DnaB (Mycobacterium tuberculosis, UniProt P9WMR3); assay: DnaB intein splicing inhibitors, dose response, biochemical, cell-free fluorescence (AID 449749); format: functional
# T5 sequence (P9WMR3 whole entry): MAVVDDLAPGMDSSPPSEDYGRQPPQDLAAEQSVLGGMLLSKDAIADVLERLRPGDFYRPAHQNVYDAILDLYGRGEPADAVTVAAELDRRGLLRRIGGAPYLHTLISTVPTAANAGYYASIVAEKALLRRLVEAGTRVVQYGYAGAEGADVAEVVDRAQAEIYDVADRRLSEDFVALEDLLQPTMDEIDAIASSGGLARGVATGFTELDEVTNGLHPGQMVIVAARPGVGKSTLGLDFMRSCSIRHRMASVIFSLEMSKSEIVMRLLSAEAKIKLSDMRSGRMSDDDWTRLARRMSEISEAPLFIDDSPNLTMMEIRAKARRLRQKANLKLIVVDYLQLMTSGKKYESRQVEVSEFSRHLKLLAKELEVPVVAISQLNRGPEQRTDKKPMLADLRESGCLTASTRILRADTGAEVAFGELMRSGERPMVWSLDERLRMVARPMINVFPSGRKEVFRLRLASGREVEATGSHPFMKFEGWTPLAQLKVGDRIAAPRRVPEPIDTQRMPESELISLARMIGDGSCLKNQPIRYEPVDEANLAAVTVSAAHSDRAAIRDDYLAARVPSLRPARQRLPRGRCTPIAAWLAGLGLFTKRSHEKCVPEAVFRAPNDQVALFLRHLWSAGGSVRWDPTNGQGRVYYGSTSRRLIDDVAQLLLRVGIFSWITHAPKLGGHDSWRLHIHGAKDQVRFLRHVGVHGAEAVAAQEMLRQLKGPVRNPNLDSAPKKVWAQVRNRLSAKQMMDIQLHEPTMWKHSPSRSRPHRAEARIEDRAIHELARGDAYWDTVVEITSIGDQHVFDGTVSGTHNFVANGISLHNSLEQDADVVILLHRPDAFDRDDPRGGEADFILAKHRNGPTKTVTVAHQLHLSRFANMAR
# BJ [13] = assay: BJ-TERT fibroblast viability loss – cell-based, RAS-independent, luminescence, dose response (AID 1933); format: functional; settings: Homo sapiens
# BJ [14] = assay: BJ-TERT-LT-ST fibroblast viability loss – cell-based, RAS-independent, luminescence, dose response (AID 1935); format: functional; settings: Homo sapiens;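 further: BJ fibroblasts immortalized with TERT plus LT and ST oncogenes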
# [15] = DRD fibroblast viability loss – cell-based, non-viral oncogenic, luminescence, dose response (AID 1934); format: functional; settings: Homo sapiens
# Protein RecA = target: T6, Protein RecA (Mycobacterium tuberculosis, UniProt P9WHJ3); assay: Fluorescence Cell-Free Homogeneous Dose Retest to Identify Inhibitors of RecA-Intein Splicing Activity. [Related pubchem assays (depositor defined):AID2097, AID2223, AID489010, AID492950]; format: functional
# T6 sequence (P9WHJ3 whole entry): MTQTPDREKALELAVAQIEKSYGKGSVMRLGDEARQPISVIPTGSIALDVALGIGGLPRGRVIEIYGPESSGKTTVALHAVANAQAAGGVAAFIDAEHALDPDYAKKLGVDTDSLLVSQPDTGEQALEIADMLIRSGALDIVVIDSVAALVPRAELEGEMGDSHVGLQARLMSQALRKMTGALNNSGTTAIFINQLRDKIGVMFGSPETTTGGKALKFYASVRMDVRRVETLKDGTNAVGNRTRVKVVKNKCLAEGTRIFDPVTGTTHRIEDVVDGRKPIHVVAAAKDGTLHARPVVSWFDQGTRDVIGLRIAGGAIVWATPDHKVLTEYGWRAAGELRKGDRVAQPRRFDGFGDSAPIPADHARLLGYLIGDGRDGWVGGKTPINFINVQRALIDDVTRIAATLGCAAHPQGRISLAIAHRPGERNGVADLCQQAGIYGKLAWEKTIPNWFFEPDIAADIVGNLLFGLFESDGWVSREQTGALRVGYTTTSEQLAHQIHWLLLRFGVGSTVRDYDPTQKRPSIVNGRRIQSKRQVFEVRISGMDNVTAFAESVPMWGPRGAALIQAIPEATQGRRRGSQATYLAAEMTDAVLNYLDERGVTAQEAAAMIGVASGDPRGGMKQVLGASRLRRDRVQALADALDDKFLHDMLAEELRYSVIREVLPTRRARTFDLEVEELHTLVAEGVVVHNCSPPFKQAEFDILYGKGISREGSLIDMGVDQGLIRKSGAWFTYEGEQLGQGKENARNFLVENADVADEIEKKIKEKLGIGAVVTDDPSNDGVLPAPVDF
compound,measurement,setting,value
COc1ccc(OC)c(NCc2cnc3ccccc3c2)c1,IC50,[1],> 100 µM (not active)
same,IC50,[2],> 100 µM (inactive)
Cc1cccc(NC(=O)C2(c3ccc([N+](=O)[O-])cc3)CCCC2)c1,AC50,CAAX prenyl protease 2,14 µM (active)
COc1c(O)cccc1-c1nnn(CCC(=O)OCC(=O)c2ccccc2)n1,EC50,"Troponin, cardiac muscle",> 71.5 µM (inactive)
COc1ccc(C)cc1S(=O)(=O)Nc1ccc2ccccc2c1,IC50,[1],> 100 µM (not active)
same,IC50,[2],> 100 µM (inactive)
COc1ccc2nc(N3C(=O)/C(=C/c4ccc(Cl)cc4)NC3=S)sc2c1,EC50,[3],28.3 µM (active)
same,IC50,[4],1.5 µM (active)
same,EC50,[5],30.4 µM (active)
same,IC50,Prothrombin,53 µM (active)
same,IC50,[6],33.5 µM (active)
same,IC50,[7],13.3 µM (active)
O=C(CCCN1CCN(c2ccccn2)CC1)c1ccc(F)cc1 [AZAPERONE],AC50,Cytochrome P450 2D6,7.94 µM (inconclusive)
same,AC50,Cytochrome P450 2C9,12.6 µM (inconclusive)
same,AC50,Cytochrome P450 1A2,15.8 µM (inconclusive)
same,AC50,Cytochrome P450 3A4,inconclusive
same,AC50,Cytochrome P450 2C19,15.8 µM (inconclusive)
Cc1ccc(-c2c(C(=O)N/N=C/c3ccc(C)o3)nnn2-c2nonc2N)cc1,IC50,[8],12.5 µM (active)
COC(=O)C(Cc1ccc(OC(=O)c2ccc(Cl)cc2)cc1)N1Cc2ccccc2C1=O (stereo unspecified),AC50,Cytochrome P450 2D6,5.01 µM (inconclusive)
same,AC50,Cytochrome P450 1A2,31.6 µM (inconclusive)
same,AC50,Cytochrome P450 3A4,inconclusive
CN1C(=O)/C(=C/C=C2\SCCN2C)OC1=S,EC50,"Troponin, cardiac muscle",7 µM (active)
O=C(c1ccco1)N1CCC2(CC1)CCN(c1ccc(-c3ccccc3)cc1)CC2,AC50,Cytochrome P450 3A4,inconclusive
Cc1ccc(S(=O)(=O)Nc2ccc(N(C)C)cc2)cc1,IC50,[4],10.7 µM (not active)
same,AC50,[9],4.46 µM (active)
same,IC50,[10],33.1 µM (active)
CCN(CC)c1ccc(/C=C2\SC(=N)NC2=O)cc1,EC50,"Troponin, cardiac muscle",6.01 µM (active)
same,AC50,[9],2.74 µM (active)
O=C(CCl)Nc1c(C(=O)Nc2ccc3c(c2)OCCO3)oc2ccccc12,EC50,BJ [11],29.4 µM (active)
same,AC50,[12],7.89 µM (active)
same,EC50,BJ [13],3.66 µM (active)
same,EC50,BJ [14],> 150 µM (inconclusive)
same,EC50,[15],19 µM (active)
same,EC50,Protein RecA,1.06 µM (active)
Cc1ccc(C(=O)OCC(=O)Nc2ccc(N(C)C)cc2)cc1NC(=O)c1ccco1,IC50,[4],3.67 µM (not active)
Cn1nc(NC(=O)C2CCC2C(=O)O)c2c(F)cccc21 (stereo unspecified),EC50,"Troponin, cardiac muscle",> 71.5 µM (inactive)
